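1) Cells in 96-well plates. 2) Compound, 48 h, 5 concentrations. 3) Linear interpolation between surrounding doses. 4) Unreached endpoint = highest concentration. At the TGI there is no net growth.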
Experiments:
Experiment in all cases: NCI anticancer screen, dose series, 48 h
HOP-62 NSCLC = system: HOP-62 NSCLC
MDA-MB-231 breast = system: MDA-MB-231 breast
SF-539 CNS = system: SF-539 CNS
OVCAR-3 ovarian = system: OVCAR-3 ovarian
HCT-15 colon = system: HCT-15 colon
PC-3 prostate = system: PC-3 prostate
OVCAR-4 ovarian = system: OVCAR-4 ovarian
KM12 colon = system: KM12 colon
IGROV1 ovarian = system: IGROV1 ovarian
BT-549 breast = system: BT-549 breast

SMILES	TGI (HOP-62 NSCLC)	TGI (MDA-MB-231 breast)	TGI (SF-539 CNS)	TGI (OVCAR-3 ovarian)	TGI (HCT-15 colon)	TGI (PC-3 prostate)	TGI (OVCAR-4 ovarian)	TGI (KM12 colon)	TGI (IGROV1 ovarian)	TGI (BT-549 breast)
O=c1[nH]nc(Cc2ccccc2)n1/N=C/c1c[nH]c2ccccc12	> 100 µM	> 100 µM	> 100 µM	> 100 µM	> 100 µM	> 100 µM	> 100 µM	> 100 µM	> 100 µM	–
CN(C)C(=S)N/N=C\C=N/NC(=S)N(C)C	–	> 100 µM	> 100 µM	> 100 µM	> 100 µM	> 100 µM	> 100 µM	> 100 µM	> 100 µM	> 100 µM
COc1cccc2cc(C)c(C(=O)c3ccccc3)nc12	> 100 µM	–	> 100 µM	> 100 µM	> 100 µM	–	> 100 µM	> 100 µM	> 100 µM	–
CCOC(C[Se]CC(OCC)OCC)OCC	–	> 100 µM	62.4 µM	> 100 µM	> 100 µM	> 100 µM	> 100 µM	> 100 µM	93.2 µM	94 µM
COc1cc(OC)c2c(O)cc(CC(C)O)cc2c1 (configuration not stated)	> 100 µM	–	> 100 µM	> 100 µM	> 100 µM	–	> 100 µM	> 100 µM	> 100 µM	–
COc1ccc(N2C=Nn3c(nc4sc(C)c(C)c4c3=O)C2)cc1	> 100 µM	> 100 µM	–	–	> 100 µM	> 100 µM	> 100 µM	> 100 µM	> 100 µM	> 100 µM
CCN(CC)Cc1nc2sc3c(c2c(=O)n1-c1ccccc1)CCCC3	86.7 µM	30.4 µM	–	34.8 µM	51.7 µM	34 µM	97.4 µM	> 100 µM	39 µM	53.6 µM
CC(=O)NCCCCNCCCNC(C)=O	–	> 100 µM	> 100 µM	–	> 100 µM	–	> 100 µM	> 100 µM	> 100 µM	> 100 µM
Cc1ccc(C(=O)OC[C@H]2CC[C@@H](n3cc(N(C)C4CCCCC4)c(=O)[nH]c3=O)O2)cc1	41.7 µM	41.3 µM	53 µM	54.4 µM	93 µM	> 100 µM	68.4 µM	40.9 µM	> 100 µM	–
COc1cc(-c2nc3cc(F)ccc3s2)ccc1O	–	> 100 µM	> 100 µM	79.1 µM	> 100 µM	> 100 µM	> 100 µM	> 100 µM	> 100 µM	> 100 µM
CC(=O)c1ccc(N=Nc2ccc3nonc3c2N)cc1	> 100 µM	> 100 µM	> 100 µM	> 100 µM	> 100 µM	> 100 µM	> 100 µM	> 100 µM	> 100 µM	–
CCCCCc1cc(OC(=O)c2c(O)cc(OC)cc2CCCCC)cc(O)c1C(=O)O	30.7 µM	–	30.5 µM	–	30.7 µM	–	41.3 µM	34 µM	32.5 µM	–
COC(=O)CCCc1ccc2c(c1)CC1(C2)Cc2cc3c(cc2C1)CCCC3	> 100 µM	> 100 µM	> 100 µM	> 100 µM	89.3 µM	> 100 µM	> 100 µM	80.6 µM	> 100 µM	–
CSc1c(C(=O)Nc2ccccc2)c(N)nn1-c1ccccc1	–	> 100 µM	> 100 µM	> 100 µM	> 100 µM	> 100 µM	> 100 µM	> 100 µM	–	> 100 µM
CC1OC(OCC2OC(Oc3c(-c4ccc(O)cc4)oc4cc(O)cc(O)c4c3=O)C(OC3OCC(O)(CO)C3O)C(O)C2O)C(O)C(O)C1O (configuration not stated)	> 100 µM	–	> 100 µM	> 100 µM	53.2 µM	–	> 100 µM	> 100 µM	> 100 µM	–
CCC1C(=O)C[C@H]2[C@@H]3C(O)CC4=CC(=O)CC[C@]4(C)[C@H]3CC[C@]12C (some centres not stated)	> 50 µM	> 50 µM	> 50 µM	> 50 µM	> 50 µM	> 50 µM	> 50 µM	> 50 µM	> 50 µM	–
O=C(Nc1ccccc1)O/N=C(/CBr)c1ccccc1	68.7 µM	29.3 µM	29.5 µM	37.9 µM	22.2 µM	30.3 µM	33.8 µM	44.2 µM	36.9 µM	–
Cc1cnc2c(C)ccc([N+](=O)[O-])c2c1NCCCN(C)C	> 100 µM	–	> 100 µM	> 100 µM	> 100 µM	–	> 100 µM	> 100 µM	> 100 µM	–
CC(=O)C(C(C)=O)=C1CCCC(O)O1 (configuration not stated)	> 100 µM	> 100 µM	> 100 µM	–	> 100 µM	–	> 100 µM	> 100 µM	> 100 µM	–
CCc1cccc(C(C)C)c1NC(=O)C(=O)C(Cc1nc2ccccc2[nH]c1=O)C(=O)OC (configuration not stated)	> 100 µM	–	> 100 µM	> 100 µM	> 100 µM	–	> 100 µM	> 100 µM	> 100 µM	–
COC1=CC(=O)c2ccccc2C1(CCC=C(C)C)C1=NC(C)(C)CO1 (configuration not stated)	> 100 µM	–	> 100 µM	> 100 µM	> 100 µM	–	> 100 µM	> 100 µM	> 100 µM	–
Cc1ccc(S(=O)(=O)N/C(=C\C=C\c2ccccc2)C(=O)C(C)(C)C)cc1	44 µM	> 100 µM	> 100 µM	> 100 µM	> 100 µM	> 100 µM	> 100 µM	> 100 µM	> 100 µM	–
O=c1c2ccccc2[nH]c(=S)n1-c1ccc(Br)cc1	> 100 µM	–	> 100 µM	> 100 µM	> 100 µM	–	> 100 µM	> 100 µM	> 100 µM	–
CC(C)(CO)CNc1cc(=O)[nH]c(N)n1	> 100 µM	> 100 µM	–	> 100 µM	> 100 µM	> 100 µM	> 100 µM	> 100 µM	> 100 µM	> 100 µM
CCNC(=O)Nc1cccc(C)n1	> 100 µM	> 100 µM	> 100 µM	> 100 µM	–	> 100 µM	> 100 µM	> 100 µM	> 100 µM	> 100 µM
